According to patent US20200079819A1, “Use of a Vaccine Targeting a Cryptic Tert Epitope, for Treating Lung Cancer in a HLA-A*0201-Positive Never-Smoker or Light-Former Smoker Patient” (Vaxon Biotech, priority 2017, published 2020):
No end group written: not given here.

System: T cells specific for the TERT572 peptide
Assay: Immunomonitoring: IFNg ELISpot assay on PBMC of vaccinated patients
Type: in vivo, human

Vx-001: vaccine composed of two nine-amino-acid peptides, TERT572 (SEQ ID No: 1) and TERT572Y (SEQ ID No: 2), administered separately with adjuvant Montanide ISA51 VG (chain 1 RLFFYRKSV; chain 2 YLFFYRKSV; not fully specified)
Patients who mounted a TERT572 specific immune response (Vx-001 treated patients measured at least at W6, W18 or thereafter (22 of 75 patients)): 29.3% | Frequency of vaccine-induced immune response (Vx-001 treated patients with natural immunity): 15% | Patients who mounted a TERT572 specific immune response (Vx-001 treated patients with non-squamous (NSQ) NSCLC): 36% | Patients who mounted a TERT572 specific immune response (Vx-001 treated patients with squamous (SQ) NSCLC): 13.3% | Frequency of vaccine-induced immune response (Vx-001 treated patients without natural immunity): 36.2%
